Laboratory results taken from publication PMC4901312, “Ecological factors drive natural selection pressure of avian aryl hydrocarbon receptor 1 genotypes” (Scientific Reports, 2016).

Assays:
Test in all cases: luciferase reporter gene transactivation assay (ckCYP1A5 promoter) in transfected COS-7 cells; LOEC
Format in all cases: cell-based
[1] = target: T1, black-footed albatross AHR1 (bfaAHR1) (Phoebastria nigripes, UniProt Q76EQ7)
T1 construct: full-length cDNA in pcDNA3.1 zeo (+), expressed in COS-7 cells; with chicken ARNT1 (ckARNT1)
T1 sequence (Q76EQ7 1-861): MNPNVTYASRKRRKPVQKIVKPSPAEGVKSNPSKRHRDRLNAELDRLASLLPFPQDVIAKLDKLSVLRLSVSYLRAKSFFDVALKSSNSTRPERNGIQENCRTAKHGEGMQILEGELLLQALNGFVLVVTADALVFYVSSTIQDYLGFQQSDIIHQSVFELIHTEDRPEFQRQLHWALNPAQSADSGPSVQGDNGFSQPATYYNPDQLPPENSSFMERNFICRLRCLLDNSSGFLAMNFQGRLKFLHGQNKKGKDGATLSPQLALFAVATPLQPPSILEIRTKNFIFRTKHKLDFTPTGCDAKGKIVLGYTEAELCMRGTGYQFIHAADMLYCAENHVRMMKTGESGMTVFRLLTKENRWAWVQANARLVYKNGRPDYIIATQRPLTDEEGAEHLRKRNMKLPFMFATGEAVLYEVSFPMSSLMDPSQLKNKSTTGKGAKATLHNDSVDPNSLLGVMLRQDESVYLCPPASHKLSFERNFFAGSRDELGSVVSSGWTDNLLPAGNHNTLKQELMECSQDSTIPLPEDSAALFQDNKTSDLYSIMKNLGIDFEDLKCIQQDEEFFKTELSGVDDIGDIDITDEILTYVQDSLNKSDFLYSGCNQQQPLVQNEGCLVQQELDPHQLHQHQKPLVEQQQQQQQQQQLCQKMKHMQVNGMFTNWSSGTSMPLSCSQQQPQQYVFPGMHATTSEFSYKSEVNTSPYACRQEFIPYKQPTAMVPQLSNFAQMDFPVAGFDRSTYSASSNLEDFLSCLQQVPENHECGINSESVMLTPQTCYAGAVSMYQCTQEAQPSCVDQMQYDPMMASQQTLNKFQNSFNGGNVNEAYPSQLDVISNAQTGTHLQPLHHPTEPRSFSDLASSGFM

[2] = target: T2, chicken AHR1 (ckAHR1) (Gallus gallus, UniProt Q9I9E2)
T2 construct: full-length cDNA in pcDNA3.1 zeo (+), expressed in COS-7 cells; with chicken ARNT1 (ckARNT1)
T2 sequence (Q9I9E2 1-858): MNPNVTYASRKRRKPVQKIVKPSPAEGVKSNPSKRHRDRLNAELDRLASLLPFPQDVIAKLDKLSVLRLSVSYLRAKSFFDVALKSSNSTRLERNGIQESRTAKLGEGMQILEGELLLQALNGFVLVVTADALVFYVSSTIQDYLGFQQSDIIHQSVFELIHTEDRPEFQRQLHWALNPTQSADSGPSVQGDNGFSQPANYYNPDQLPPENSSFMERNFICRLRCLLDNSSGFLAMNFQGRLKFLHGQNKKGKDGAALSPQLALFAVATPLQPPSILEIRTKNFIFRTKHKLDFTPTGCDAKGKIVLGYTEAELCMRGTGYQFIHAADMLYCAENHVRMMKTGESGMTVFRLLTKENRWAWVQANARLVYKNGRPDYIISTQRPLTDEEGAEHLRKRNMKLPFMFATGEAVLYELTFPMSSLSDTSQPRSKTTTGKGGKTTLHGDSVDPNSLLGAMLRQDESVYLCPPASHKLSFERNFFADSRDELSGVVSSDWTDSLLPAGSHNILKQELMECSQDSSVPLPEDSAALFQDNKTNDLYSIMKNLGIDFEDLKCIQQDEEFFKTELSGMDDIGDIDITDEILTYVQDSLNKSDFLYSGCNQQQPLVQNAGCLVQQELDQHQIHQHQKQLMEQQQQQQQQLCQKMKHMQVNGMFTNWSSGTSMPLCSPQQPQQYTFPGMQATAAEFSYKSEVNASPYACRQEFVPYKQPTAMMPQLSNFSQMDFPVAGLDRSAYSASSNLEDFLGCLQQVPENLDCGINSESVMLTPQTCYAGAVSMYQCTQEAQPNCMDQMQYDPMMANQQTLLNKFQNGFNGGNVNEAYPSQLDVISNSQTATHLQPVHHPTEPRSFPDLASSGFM

[3] = target: T3, common cormorant AHR1 (ccAHR1) (Phalacrocorax carbo, UniProt Q76CM2)
T3 construct: gene AHR 1; full-length cDNA in pcDNA3.1 zeo (+), expressed in COS-7 cells; with chicken ARNT1 (ckARNT1)
T3 sequence (Q76CM2 1-860): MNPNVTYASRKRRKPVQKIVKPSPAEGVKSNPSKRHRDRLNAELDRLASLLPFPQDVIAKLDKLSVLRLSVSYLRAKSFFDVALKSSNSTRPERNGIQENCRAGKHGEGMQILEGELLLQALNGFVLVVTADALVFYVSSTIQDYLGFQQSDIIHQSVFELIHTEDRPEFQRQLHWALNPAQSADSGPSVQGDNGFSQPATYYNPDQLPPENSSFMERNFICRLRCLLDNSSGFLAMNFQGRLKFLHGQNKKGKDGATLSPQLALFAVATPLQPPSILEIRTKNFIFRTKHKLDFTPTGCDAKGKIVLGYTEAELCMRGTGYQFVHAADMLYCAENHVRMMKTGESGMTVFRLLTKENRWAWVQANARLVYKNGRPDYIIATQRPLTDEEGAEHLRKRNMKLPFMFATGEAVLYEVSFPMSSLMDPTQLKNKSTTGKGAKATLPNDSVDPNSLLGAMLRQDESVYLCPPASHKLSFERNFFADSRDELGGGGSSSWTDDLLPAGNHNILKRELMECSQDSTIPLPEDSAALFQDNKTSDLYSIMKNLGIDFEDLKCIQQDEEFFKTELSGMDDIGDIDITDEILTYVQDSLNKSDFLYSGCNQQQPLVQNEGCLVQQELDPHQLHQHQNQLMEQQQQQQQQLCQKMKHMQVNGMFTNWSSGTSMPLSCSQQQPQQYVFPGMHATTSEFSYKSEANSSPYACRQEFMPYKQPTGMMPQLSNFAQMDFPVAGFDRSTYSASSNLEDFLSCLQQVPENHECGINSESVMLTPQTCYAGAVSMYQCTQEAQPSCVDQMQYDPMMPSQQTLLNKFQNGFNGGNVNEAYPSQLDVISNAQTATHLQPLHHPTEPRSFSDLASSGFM

**Q.** What does the source list for `Brc1ccc2c(c1)Oc1cc(Br)cc(Br)c1O2` [1,3,7-TriBDD, 1,3,7-tribromodibenzo-p-dioxin]?
**A.** luciferase reporter gene transactivation assay (ckCYP1A5 promoter) in transfecte [1]: 12 nM; luciferase reporter gene transactivation assay (ckCYP1A5 promoter) in transfecte [2]: 1.2 nM; luciferase reporter gene transactivation assay (ckCYP1A5 promoter) in transfecte [3]: 120 nM
